In patent publication US20080279961A1, “TELOMERE TARGETING AGENTS AS STEM CELLS DIRECTED TREATMENTS” (priority 2007, published 2008):

Experiments:
[1] = tested on: UXF1138L tumor tissue; assay: HTCA/clonogenic growth of in vivo treated xenograft tissue; set-up: species or system nude mice; conditions: for HTCA growth [%]: control set 100%
Experimental: Upon termination of the experiment, which was when tumors reached a volume of 1.5 cm in diameter (day 28), RHPS4 treated tumor tissue and control tumors were excised, minced and digested using a mixture of collagenase (123 U/ml), DNase (375 U/ml), and hyaluronidase (290 U/ml) in RPMI 1640 medium at 37° C. for 3 hrs. All enzymes were purchased from Roche, Indianapolis Ind.). Primary cultures as well as clonogenic growth assays were prepared from the resulting single cell suspensions. Primary cultures were used for analysis of telomere length. In addition, RHPS4 treated tumors (5 mg/kg/d) and control were propagated into new animals for up to three times. The control mouse group was always derived from untreated tumor fragments, but from the same initial passage as were the RHPS4 treated tumors (FIG. 1B).
(§1) In human tumor stem cell assay (HTCA)/clonogenic assay, single cell suspensions from in vivo studies above were washed in medium and passed through sieves and the resulting single cell suspensions seeded into soft agar (n=3 tumors per group) as described by us before (Fiebig et al., 2004). Single cell suspensions of cell lines were prepared by trypsinization from cells growing as monolayers on plastic. Briefly, 5,000 (HEK293T cells), 10,000 (PC3, MCF-7 and UXF1138L cells) or 50,000 (UXF1138L tumor tissue) vital cells were added to 0.2 ml Iscove's medium/20% fetal bovine serum/0.05% gentamycin containing 0.4% agar and plated on top of a base layer consisting of 0.2 ml medium with 0.75% agar. The next day, the agar layers were fed with Isocve's medium and cultures incubated at 37° C., 7% CO2 for approximately 11 days. Vital colonies were stained with 2-(4-iodophenyl)-3-(4-nitrophenyl)-5-phenyltetrazolium chloride (1 mg/ml) 24 hrs before evaluation, and colonies >70 μm were counted with an automated image analysis system (Omincon FAS IV, BIOSYS GmbH, Karben, Germany). Drug effect was assessed as growth inhibitory concentrations 50 and 70% (IC50, IC70). Methylcellulose was used to grow cord blood stem cells instead of soft agar. The seeding density was 20,000 cells/well. Stem cell growth factor supplemented and optimized methylcellulose (Methocult H4434) was purchased from Stem Cell Technologies (Vancouver, CA). Methylcellulose lacking growth factors was used as negative growth control. Statistical significance between treatment groups was evaluated by using the Student T-test.

[2] = tested on: MCF-7 cells; assay: human tumor stem cell assay (HTCA)/clonogenic assay; assay type: cell-based
Experimental: as §1
(§2) The growth inhibitory activity of RHPS4 in human bulk tumor cells have been compared, by MTT assay, against RHPS4 activity in tumor cells grown as colonies in the clonogenic assay, also termed the human tumor stem cell assay (HTCA) (FIG. 2A-B). HEK293T human embryonic kidney cells grown in the HTCA, and cord blood cells cultured in methylcellulose were also treated with RHPS4 (FIG. 2C). The MTT assay is a 5 day proliferation test measuring effects on a morphologically heterogeneous, differentiated cell population (bulk cells), whereas the HTCA and methylcellulose assays are longer term (10-15 day) tests in which only a very small fraction of a bulk culture (˜0.1-1%) will grow as colonies. Cells growing anchorage-independently as colonies in a semi-solid matrix are considered to be pluripotent stem cells (Hamburger & Salmon, 1977; Locke et al., 2005; Fiebig et al. 2004). […] Similar observations were made with the breast cancer cell line MCF-7 (shown in FIG. 2B, HTCA IC50=0.04 microM; bulk cell IC50=2 microM).

[3] = tested on: PC3 cells; assay: as above; assay type: cell-based; conditions: PC3 colonies; read-out: IC50 colony growth in the HTCA
Experimental: as §1, §2

[4] = tested on: UXF1138L cells; assay: as above; assay type: cell-based; conditions: UXF1138L colonies; read-out: IC50 colony growth in the HTCA
Experimental: as §1, §2

[5] = tested on: human cord blood mononuclear cells; assay: methylcellulose colony assay; assay type: cell-based
Experimental: The UXF1138L uterus carcinoma cell line was originally established from a patient tumor by Prof. Heiner Fiebig at the University of Freiburg, Germany (Fiebig and Burger, 2001). All animal experiments were conducted under an animal license approved by the German Federal Government (Regierungspräsidium Freiburg) and in compliance with the UKCCCR guidelines on experimental neoplasia (Workman et al., 1998). Six to eight weeks old female thymus aplastic nude mice of NMRI genetic background were used for establishment and serial propagation of the human tumor xenograft from the cell line. PC3 and MCF-7 cells were obtained from American Type Culture Collection, Manassas, Va. The HEK293T human embryonic kidney cell line was a kind gift from Dr. Arun Seth, Sunnybrook Health Sciences Centre, Toronto, CA. Umbellical vein cord blood was freshly obtained from a hospital maternity ward with the consent of the respective patient, specimens were anonymized. The cord blood was collected into a BD Vacutainer CPT™ and the mononuclear fraction isolated by centrifugation following the manufacturers instructions.
as §1, with “T-test. […]” for “T-test.”

COS(=O)(=O)[O-].Cc1cc2c3c([n+](C)c4ccc(F)cc4c3c1)-c1cc(F)ccc1N2C [RHPS4, 3,11-difluoro-6,8,13-trimethyl-8H-quino[4,3,2-kl]acridinium methosulfate]
inhibition of colony forming units in the same tumor tissues ([1]; Passage 3): 54%±6.6
HTCA growth [%] ([1]; Passage #1): 83 ± 2.3%
HTCA growth [%] ([1]; Passage #2): 93 ± 2.3%
HTCA growth [%] ([1]; Passage #3): 54.5 ± 6.6%
HTCA growth [%] ([1]; Passage #4): 44 ± 6.4%
clonogenicity of RHPS4 treated tumor tissue in soft agar tumor stem cell assay ([1]; passages 1-4): marked reduction in clonogenicity
activity in colonies (HTCA) versus whole cell populations ([2]; MCF-7): two log-fold
IC50 ([2]; MCF-7 colonies, read-out: IC50 colony growth in the HTCA): 40 nM
IC50 [3]: 30 nM
IC50 [4]: 20 nM
stimulation of growth, number of colonies compared to vehicle ([5]; 0.1 and 1 mircoM RHPS4, cord blood): doubling to tripling the number of colonies
RHPS4 concentrations that inhibited colony formation ([5]; cord blood cells): > 1 mircoM
drug concentration at which cell kill of normal stem cells was seen ([5]; cord blood colony forming units): ~10 mircoM
least percentage (cut-off level) of growth induction ([5]; individual cord blood experiments, % of control growth): ≥ 150%
